The source of these data is patent US6656906B1, “Hybrid polypeptides with enhanced pharmacokinetic properties” (Trimeris, Inc., priority 1998, dated 2003).

Data set [1] is described as follows: FIG.5. The note with it: for half-life: CD, rat, plasma, iv, read-out: T1/2β (converted). An excerpt: Table printed on a drawing sheet, FIG.5
The patent's description of the figure: FIG. 5.
First reader's note: The table is printed under a plasma concentration-time plot of the same two peptides, which is not copied.

Data set [2] deals with RSV. In words: Respiratory syncytial virus plaque reduction assay (Hep2 cells). It is filed as cell-based. As for the experimental part:
All necessary dilutions of peptides were performed in clean, sterile 96-well TC plate. A total of eleven dilutions for each peptide and one control well containing no peptide were assembled. The final concentration range of peptide started at 50 μg/ml or 100 μg/ml, with a total of eleven two-fold dilutions. The RSV was prepared at a concentration of 100PFU/well in 100 μl 3% EMEM, as determined by a known titer of RSV. The virus is then added to all of the wells.
The media was removed from one sub-confluent 96-well plate of Hep2 cells. The material from the dilution plate was transferred onto the cell plates starting with row 1 and then transferring row 12, row 11, etc. until all rows were transferred. Plates were placed back into the incubator for 48 hours.
The cells were checked to ensure that syncytia were present in the control wells. Media was removed and approximately 50 μls of 0.25% Crystal Violet in methanol was added to each well. The wells were rinsed immediately in water to remove excess stain and allowed to dry. Using a dissecting microscope, the number of syncytia in each well was counted.
In general terms: In a plaque reduction assay, fewer plaques than in the control indicate reduced infectivity or spread.

Data set [3] is described as follows: Rat pharmacokinetic studies, IV, fluorescence HPLC of plasma. The data set is classed as in vivo, CD rats. Conditions: for half-life relative to core peptide T1476 / half-life relative to core peptide T786: CD rats. How it is done:
250-300 g male CD rats, double jugular catheter, obtained from Charles River Laboratories were used. Peptides were injected in one jugular catheter in a volume of 200 μl of peptide solution (approximately 3.75 mg/ml), dosing solution concentration was determined using the Edelhoch method, (Edelhoch, 1967, Biochemistry 6:1948-1954) method and adjusted based on animal weight such that each animal received a dose of 2.5 mg/kg). Approximately 250-300 μl of blood was removed at predetermined time intervals (0, 15, 30 min and 1, 2, 4, 6, and 8 hours) and added to EDTA capiject tubes. Plasma was removed from pelleted cells upon centrifugation and either frozen or immediately processed for fluorescence HPLC analysis.
100 μl of sample plasma was added to 900 μl of precipitation buffer (acetonitrile, 1.0% TFA, detergent) resulting in precipitation of the majority of plasma proteins. Following centrifugation at 10,000 rpm for 10 min, 400 μl of the supernatant was removed and added to 600 μl of HPLC grade water. Serial dilutions were performed as dictated by concentration of peptide present in each sample in dilution buffer comprised of 40% precipitation buffer and 60% HPLC water. In addition to sample dilutions, serial dilutions of dosing solution were performed in buffer as well as in plasma and used to generate a standard curve relating peak area to known concentration of peptide. This curve was then used to calculate concentration of peptide in plasma taking into account all dilutions performed and quantity injected onto column.

Data set [4] addresses M41Δ178 (a truncated gp41 ectodomain fusion protein lacking the T20 amino acid sequence).
The subject of data set [5] is HIV-1.
The subject of data set [6] is HIV-1 9320. The experiment in a line: In vivo HuPBMC-SCID mouse model of HIV-1 9320 infection. Conditions: 67 mg/kg total daily dose, IP, bid, 8 days. Details: species or system SCID mice. As for the experimental part: Female SCID mice (5-7 weeks old) received 5-10×10^7 adult human PBMC injected intraperitoneally. Two weeks after reconstitution, mice were infected IP on day 0 with 10^3 TCID50 HIV-1 9320 (AZT-sensitive isolate A018). Treatment with peptides was IP, bid, beginning day −1 and continuing through day 6. The extent of infection in blood cells, splenocytes, lymph nodes, and peritoneal cells was assayed by quantitative co-culture with human PBMC blasts weekly for three consecutive weeks following animal exsanguinations and tissue harvest (day 7, approximately 12-18 hours following the last drug treatment). Co-culture supernatants were evaluated for HIV-1 p24 antigen production as a measure of virus infection (Immunotek Coulter kits and protocol).
Two weeks after reconstitution with HuPBMCs, mice were infected IP on day 0 with 10^3 TCID50 HIV-1 9320 passed in PBMCs (AZT-sensitive isolate A018). […] The extent of infection in blood cells, splenocytes, lymph nodes, and peritoneal cells was assayed by quantitative co-culture with human PBMC blasts weekly for three consecutive weeks following animal exsanguinations and tissue harvest (day 7, approx. 12 to 18 hours following last drug treatment). Co-culture supernatants were evaluated for HIV-1 p24 antigen production as a measure of virus infection.

In data set [7] the test system is HIV-2 NIHZ. In words: virus mediated cell-cell fusion assay (chronically infected CEM cells mixed with uninfected Molt-4 cells). It is filed as cell-based.
Data set [8] deals with HIV-1. This is another data set of the same source.
Data set [9] deals with HIV-1. The experiment in a line: Human PBMC infectivity/neutralization assay. It is filed as cell-based. How it is done: The prototypic assay used cell lines where the primary isolate assay utilizes PBMC, obtained through Interstate Blood Bank, activated for 2-3 days with a combination of OKT3 (0.5 μg/ml) and CD28 antibodies (0.1 μg/ml). The target cells were banded on lymphocyte separation medium (LSM), washed, and frozen. Cells were thawed as required and activated as indicated above a minimum of 2-3 days prior to assay. In this 96-well format assay, cells were at a concentration of 2×10^6/ml in 5% IL-2 medium and a final volume of 100 μl. Peptide stock solutions were made in DPBS (1 mg/ml). Peptide dilutions were performed in 20% FBS RPM1 1640/5% IL-2 complete medium.

For data set [10], the system named is SIV isolate B670. The experiment in a line: Magi-CCR-5 infectivity assay. It is filed as cell-based.
Data set [11] deals with M41Δ178 (a truncated gp41 ectodomain fusion protein lacking the T20 amino acid sequence). This is another data set of the same source.

Like-named read-outs stand apart in the source and are kept apart here. No end group written: not given here.

Regarding `CC[C@H](C)[C@H](NC(=O)[C@H](CCC(N)=O)NC(=O)[C@H](C)NC(=O)[C@H](CCC(N)=O)NC(=O)[C@H](CCC(=O)O)NC(=O)[C@H](CC(C)C)NC(=O)[C@H](CC(C)C)NC(=O)[C@H](C)NC(=O)[C@@H](NC(=O)[C@@H](NC(=O)[C@H](CCCCN)NC(=O)[C@H](CCC(N)=O)NC(=O)[C@H](CCC(=O)O)NC(=O)[C@H](Cc1c[nH]c2ccccc12)NC(=O)[C@H](CCC(=O)O)NC(=O)[C@H](CCC(N)=O)NC(=O)[C@H](Cc1c[nH]c2ccccc12)NC(C)=O)[C@@H](C)CC)[C@@H](C)O)C(=O)N[C@@H](CCC(N)=O)C(=O)N[C@@H](CCC(N)=O)C(=O)N[C@@H](CCC(=O)O)C(=O)N[C@@H](CCCCN)C(=O)N[C@@H](CC(N)=O)C(=O)N[C@@H](CCC(=O)O)C(=O)N[C@@H](Cc1ccc(O)cc1)C(=O)N[C@@H](CCC(=O)O)C(=O)N[C@@H](CC(C)C)C(=O)N[C@@H](CCC(N)=O)C(=O)N[C@@H](CCCCN)C(=O)N[C@@H](CC(C)C)C(=O)N[C@@H](CC(=O)O)C(=O)N[C@@H](CCCCN)C(=O)N[C@@H](Cc1c[nH]c2ccccc12)C(=O)N[C@@H](C)C(=O)N[C@@H](CO)C(=O)N[C@@H](CC(C)C)C(=O)N[C@@H](Cc1c[nH]c2ccccc12)C(=O)N[C@@H](CCC(=O)O)C(=O)N[C@@H](Cc1c[nH]c2ccccc12)C(=O)N[C@@H](Cc1ccccc1)C(N)=O` [T1249A1], in data set [1], the “AUC[0-8]” value came to 71.43 µg/h/mL and the half-life was 4.71 h.
In the case of “Ac-VYPSDEYDASISQVNEEINQALAYIRKADELLENV-NH2 [T786, RSV core peptide]”, the “ability to inhibit RSV infection (plaque formation of HEp2 cells)” value (shortened to “ability to inhibit RSV infection”) in data set [2] is recorded as “able to inhibit RSV infection”.
Turning to “Ac-WQAWDEYDASISDVNEKINQALAYIREADELWEWF-NH2 [T1303, RSV hybrid polypeptide]”, the “ability to inhibit RSV infection” value in data set [2] is recorded as “inhibit RSV infection”. Besides, the “half-life relative to core peptide T1476” value in data set [3] is listed as “greatly enhanced half-life”.
Turning to “Ac-WQAWDEYDASISQVNEKINQALAYIREADELWAWF-NH2 [T1302]”, the “ability to inhibit RSV infection” value in [2] is “inhibit RSV infection”. Moreover, in data set [3], the “half-life relative to core peptide T786” value was “greatly enhanced half-life” and the “half-life relative to core peptide T1476” value is reported as “greatly enhanced half-life”.
With “Ac-WQEWDEYDASISQVNEKINQALAYIREADELWAWF-NH2 [T1301, Ac-WQEWDEYDASISQVNEKINOALAYIREADELWA WF-NH2]”, the “ability to inhibit RSV infection” value in data set [2] is “inhibit RSV infection”. In [3], the “half-life relative to core peptide T786” value is listed as “greatly enhanced half-life” and the “half-life relative to core peptide T1476” value was “greatly enhanced half-life”.
Take “Ac-WQEWEQKIQHWSYGLRPGWASLWEWF-NH2 [T1324]”: the “half-life compared to the T1323 core peptide” value in [3] (CD male rats) is listed as “significantly increased half-life”.
For orientation: Kd means the free concentration of one partner at which half of the binding sites on the other are occupied at equilibrium, for simple one-to-one binding. Turning to T20 (peptide), the Kd in data set [4] lay in the range of 1 to 2 nM.
For the molecule “WMEWDREINKYTSLIHSLIEESQNQQEKNEQELL [DP397]”, the “inhibition of HIV-1 infection compared to T1249” value was “increased inhibition of HIV-1 infection” in [5] (DH012-649 strain, at higher concentrations) and “increased inhibition of HIV-1 infection” in data set [5] (RF-649 strain). The “inhibition of HIV-1 infection compared to T649” value in [5] (T649 resistant strains RF-649, DH012-649, 3′ETVQQQ, SIM-649) is “markedly increased inhibition of HIV-1 infection”.
For enfuvirtide [listing 1 of 2 here], the half-life in data set [1] is 1.6 h.
As for enfuvirtide [listing 2 of 2 here], in data set [6], the “infectious virus in blood or lymph tissues” value was “not detectable”. In addition, the “virus in peritoneal washes and spleen preparation” value in data set [6] is reported as “detected”. For the same molecule, the “fusion inhibition” value in data set [7] is 3610.0 ng/mL; in data set [8] (HIV-1 9320), 118.4 ng/mL; in data set [8] (HIV-1 G691-2 (AZT-R)), 406.0 ng/mL; in data set [8] (HIV-1 G762-3 (Pre-AZT)), 340.1 ng/mL; in data set [8] (HIV-1 IIIB), 2.5 ng/mL; in [8] (HIV-1 MN), 20.0 ng/mL. In addition, the “fusion inhibition” value in [8] (HIV-1 RF) is 6.1 ng/mL; in data set [8] (HIV-1 pNL4-3 SM (T20 Resistant)), 405.3 ng/mL. Further, the EC-50 in data set [5] (HIV-1 9320) was determined as 11; in data set [5] (HIV-1 301714 (subtype B, NSI)), 1065; in [5] (HIV-1 G691-2 (AZT-R)), 13; in data set [5] (HIV-1 IIIB), 42; in [5] (HIV-1 pNL4-3) it was 166; in data set [5] (HIV-1 pNL4-3 SM (T20-R)) it was 90. In addition, the EC-50 in [5] (HIV-1 pNL4-3 SM (T20-R) Duke) is listed as 410; in [5] (HIV-1 pNL4-3 STM (T20/T649-R)), >50000; in data set [10] it was 2313. In addition, the “Vn/Vo = 0.1” value turned out to be 50 in data set [5] (HIV-1 9320); 4000 in data set [5] (HIV-1 301714 (subtype B, NSI)); 200 in data set [5] (HIV-1 G691-2 (AZT-R)); 80 in data set [5] (HIV-1 IIIB); 210 in [5] (HIV-1 pNL4-3); 900 in data set [5] (HIV-1 pNL4-3 SM (T20-R)). Further, the “Vn/Vo = 0.1” value in data set [5] (HIV-1 pNL4-3 SM (T20-R) Duke) was 2600; in data set [5] (HIV-1 pNL4-3 STM (T20/T649-R)), >50000; in [9] (HIV-1 9320), 6000 ng/mL; in data set [9] (HIV-1 301593 (subtype B, SI)) it was 3500 ng/mL; in data set [9] (HIV-1 301714 (subtype B, NSI)), 8000 ng/mL; in data set [9] (HIV-1 302056 (subtype B, NSI)), 800 ng/mL. The “Vn/Vo = 0.1” value in data set [9] (HIV-1 302077 (subtype A)) is 3300 ng/mL; in data set [9] (HIV-1 302143 (SI)), 1600 ng/mL; in [9] (HIV-1 G691-2 (AZT-R)), 1300 ng/mL; in data set [9] (HIV-1 IIIB, dose required to reduce virus titer by one log), 250 ng/mL; in data set [9] (HIV-1 pNL4-3), 3500 ng/mL; in data set [9] (HIV-1 pNL4-3 SM (T20-R)), >10000 ng/mL. The “Vn/Vo = 0.1” value in data set [10] is reported as >10000.

B1: T1249 (Ac-[…]-NH2) (peptide)
peptide: WQEWEQKITALLEQAQIQQEKNEYELQKLDKWASLWEWF
modifications: not fully specified (N-terminus, C-terminus)
B1: in [11], the Kd lay in the range of 1 to 2 nM.
